# In patent publication US20260083865A1, “PROSTATE SPECIFIC MEMBRANE ANTIGEN (PSMA) LIGANDS AND USE THEREOF” (priority 2022, published 2026):
# Like-named read-outs stand apart in the source and are kept apart here. Numbered stars: 1 amine (or outer) side, 2 acyl side, 3 side chain; on linkers, the order of the positions; unused ones are H or OH. Bridge positions count the residues as written; N and C are the ends. Square brackets hold non-standard residues; d marks the D form. Peptide text beside a SMILES is read from it. * marks the point of attachment. DOTA = O=C(O)CN1CCN(CC(=O)O)CCN(CC(=O)*)CCN(CC(=O)O)CC1; Phe(3-CF3) = N[C@@H](Cc1cccc(C(F)(F)F)c1)C(=O)O; Phe(4-Cl) = N[C@@H](Cc1ccc(Cl)cc1)C(=O)O; Phe(4-NH2) = Nc1ccc(C[C@H](N)C(=O)O)cc1; Arg(Me) = CNC(=N)NCCC[C@H](N)C(=O)O; 2Pal = N[C@@H](Cc1ccccn1)C(=O)O; X1 = O=C(CC1CCN([*:1])CC1)[*:2]; Lys(Me) = CNCCCC[C@H](N)C(=O)O; dTle = CC(C)(C)[C@@H](N)C(=O)O; Tle = CC(C)(C)[C@H](N)C(=O)O; Propanoyl(3-OH) = O=C(CCO)*; Nle = CCCC[C@H](N)C(=O)O; Aib = CC(C)(N)C(=O)O
# Columns and labels:
# [1] = target: T1, Fc-fusion protein of human PSMA (hPSMA-Fc) (Homo sapiens, UniProt Q04609); assay: Surface plasmon resonance assay (Biacore T200, single cycle kinetic); type: binding; settings: hPSMA-Fc, 25° C., read-out: pKD CAT (converted)
# T1 construct: purchased Acro Biosystems PSA-H5264
# T1 sequence (Q04609 44-750 limits assumed): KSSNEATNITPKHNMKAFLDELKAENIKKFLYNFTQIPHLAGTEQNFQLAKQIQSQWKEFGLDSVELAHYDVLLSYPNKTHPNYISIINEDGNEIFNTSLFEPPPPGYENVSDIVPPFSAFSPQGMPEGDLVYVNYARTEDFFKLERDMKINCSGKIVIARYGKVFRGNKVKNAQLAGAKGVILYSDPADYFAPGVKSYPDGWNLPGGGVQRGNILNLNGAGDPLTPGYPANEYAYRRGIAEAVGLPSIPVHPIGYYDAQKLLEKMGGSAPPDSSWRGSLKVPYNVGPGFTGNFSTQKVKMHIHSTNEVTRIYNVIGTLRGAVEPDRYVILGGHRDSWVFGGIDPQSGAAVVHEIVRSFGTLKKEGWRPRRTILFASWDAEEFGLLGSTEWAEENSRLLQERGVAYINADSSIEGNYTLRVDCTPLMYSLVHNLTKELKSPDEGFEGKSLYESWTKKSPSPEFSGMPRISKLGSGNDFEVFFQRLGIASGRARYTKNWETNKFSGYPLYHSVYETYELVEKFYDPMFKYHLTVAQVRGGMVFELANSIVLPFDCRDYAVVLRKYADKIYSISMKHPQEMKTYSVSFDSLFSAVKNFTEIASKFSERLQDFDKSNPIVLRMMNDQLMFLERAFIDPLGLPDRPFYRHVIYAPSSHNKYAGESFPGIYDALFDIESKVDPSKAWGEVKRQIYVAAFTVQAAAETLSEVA
# Procedure, shortened: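 KD, expressed as pKD, came from 1:1 Langmuir fits of reference- and buffer-blank-subtracted SPR data. The runs were single-cycle kinetics at 25° C in HBST/0.1% DMSO over human PSMA-Fc, captured to ~1000 RU on a peptide-coated CM5 surface and regenerated with 10 mM glycine pH 1.5.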
# [2] = target: T2, PSMA-expressing C4-2 cells (Homo sapiens, UniProt Q04609); assay: FACS binding assay (competition with 50 nM PSM-0183); settings: read-out: pIC50 [C4-2] CAT (converted)
# T2 construct: PSMA-expressing C4-2 cells (ATCC, Cat. No. CRL-3314) were cultured in RPMI-1640; host or cells: C4-2 cells
# T2 sequence (Q04609 whole entry): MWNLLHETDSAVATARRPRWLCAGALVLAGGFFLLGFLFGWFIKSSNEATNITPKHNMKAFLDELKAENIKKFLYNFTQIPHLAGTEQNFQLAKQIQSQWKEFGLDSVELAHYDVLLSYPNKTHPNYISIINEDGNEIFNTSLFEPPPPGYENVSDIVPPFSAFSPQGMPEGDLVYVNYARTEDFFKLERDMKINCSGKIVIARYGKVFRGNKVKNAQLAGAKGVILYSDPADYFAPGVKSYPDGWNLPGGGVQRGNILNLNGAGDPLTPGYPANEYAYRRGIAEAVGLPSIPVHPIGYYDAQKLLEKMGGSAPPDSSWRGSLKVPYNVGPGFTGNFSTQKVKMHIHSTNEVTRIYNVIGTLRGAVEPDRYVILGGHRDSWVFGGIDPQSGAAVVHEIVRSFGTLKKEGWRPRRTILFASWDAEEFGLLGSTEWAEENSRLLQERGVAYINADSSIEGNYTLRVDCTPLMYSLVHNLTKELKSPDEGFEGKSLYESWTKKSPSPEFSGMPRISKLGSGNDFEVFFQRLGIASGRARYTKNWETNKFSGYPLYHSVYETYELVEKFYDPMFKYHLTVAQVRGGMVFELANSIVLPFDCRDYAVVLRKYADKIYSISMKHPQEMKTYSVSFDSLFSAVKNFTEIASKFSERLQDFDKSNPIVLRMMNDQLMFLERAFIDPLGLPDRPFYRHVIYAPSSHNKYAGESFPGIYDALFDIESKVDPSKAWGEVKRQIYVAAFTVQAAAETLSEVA
# Procedure, shortened: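 Competition format: fluorescent tracer PSM-0183 (50 nM) displaced from PSMA on C4-2 cells by a test compound titration over 1 h at 4 °C. Bound tracer was quantified as flow-cytometric AF488 median fluorescence after washing. Four-parameter logistic fits of MFI data gave IC50 and pIC50.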
# [3] = pKD category for PSMA SPR activity assay
# [4] = pIC50 category of FACS binding, C4-2 cells
# [5] = SPR, single cycle kinetic, category
# [6] = FACS binding, C4-2 cells, competition with 50 nM PSM-0183, category
SMILES,"Kd [1, 3] [nM]","IC50 [2, 4] [nM]",further results
"CC(=O)N[C@H](C(=O)NC(C)(C)C(=O)N[C@@H](Cc1ccccc1)C(=O)N[C@H]1CSSC[C@@H](C(=O)N[C@@H](C(=O)N[C@H](C(N)=O)[C@@H](C)O)C(C)(C)C)NC(=O)[C@H](CC(N)=O)NC(=O)C(C)(C)NC(=O)[C@H](CCCNC(=N)N)NC(=O)[C@H](CCCCN)NC1=O)[C@@H](C)O [PSM-0350, Ac-Thr-Aib-Phe-[Cys-Lys-Arg-Aib-Asn-Cys]-leu-Thr-NH2] (Ac-T[Aib]FCKR[Aib]NC[dTle]T-NH2; disulfide 4-9)",,,"Kd ([1]; PSMA SPR assay, pKD category): 126 to 501 nM; IC50 ([2]; FACS binding, PSMA-expressing C4-2 cells, pIC50 category): 200 to 1260 nM"
"C[C@@H](O)[C@H](NC(=O)[C@@H](NC(=O)[C@@H]1CSSC[C@H](NC(=O)[C@H](Cc2ccc(Cl)cc2)NC(=O)C(C)(C)NC(=O)[C@@H](NC(=O)CC2CCN(C(=O)CN3CCN(CC(=O)O)CCN(CC(=O)O)CCN(CC(=O)O)CC3)CC2)[C@@H](C)O)C(=O)N[C@@H](CCCCN)C(=O)N[C@@H](CCCNC(=N)N)C(=O)NC(C)(C)C(=O)N[C@@H](CC(N)=O)C(=O)N1)C(C)(C)C)C(N)=O [PSM-0445, DOTA-Cmp-Thr-Aib-Pcf-[Cys-Lys-Arg-Aib-Asn-Cys]-Tle-Thr-NH2] ({DOTA}-[X1]T[Aib][Phe(4-Cl)]CKR[Aib]NC[Tle]T-NH2; disulfide 5-10)",< 12.6,< 200,
"CNCCCC[C@@H]1NC(=O)[C@@H](NC(=O)[C@H](Cc2ccccn2)NC(=O)C(C)(C)NC(=O)[C@@H](NC(=O)CC2CCN(C(=O)CN3CCN(CC(=O)O)CCN(CC(=O)O)CCN(CC(=O)O)CC3)CC2)[C@@H](C)O)CSSC[C@@H](C(=O)N[C@H](C(=O)N[C@H](C(N)=O)[C@@H](C)O)C(C)(C)C)NC(=O)[C@H](CC(N)=O)NC(=O)C(C)(C)NC(=O)[C@H](CCCNC(=N)NC)NC1=O [PSM-0257, DOTA-Cmp-Thr-Aib-Opa-[Cys-Lys(Me)-Arg(Me)-Aib-Asn-Cys]-Tle-Thr-NH2] ({DOTA}-[X1]T[Aib][2Pal]C[Lys(Me)][Arg(Me)][Aib]NC[Tle]T-NH2; disulfide 5-10)",,,"Kd [1, 5]: 12.6 to 126 nM; IC50 [2, 6]: 200 to 1260 nM"
"C[C@@H](O)[C@H](NC(=O)[C@@H](NC(=O)[C@@H]1CSSC[C@H](NC(=O)[C@H](Cc2ccccc2)NC(=O)C(C)(C)NC(=O)CCO)C(=O)N[C@@H](CCCCN)C(=O)N[C@@H](CCCNC(=N)N)C(=O)NC(C)(C)C(=O)N[C@@H](CC(N)=O)C(=O)N1)C(C)(C)C)C(N)=O [PSM-0530, HPA-Aib-Phe-[Cys-Lys-Arg-Aib-Asn-Cys]-Tle-Thr-NH2] ({Propanoyl(3-OH)}-[Aib]FCKR[Aib]NC[Tle]T-NH2; disulfide 3-8)",< 12.6,< 200,
"CC(=O)N[C@H](C(=O)NC(C)(C)C(=O)N[C@@H](Cc1ccccc1)C(=O)N[C@H]1CSSC[C@@H](C(=O)N[C@H](C(=O)N[C@H](C(=O)N[C@@H](CC(=O)O)C(N)=O)[C@@H](C)O)C(C)(C)C)NC(=O)[C@H](CC(N)=O)NC(=O)[C@H](C)NC(=O)[C@H](CCCNC(=N)N)NC(=O)[C@H](Cc2ccc(N)cc2)NC1=O)[C@@H](C)O [PSM-0439, Ac-Thr-Aib-Phe-[Cys-Aph-Arg-Ala-Asn-Cys]-Tle-Thr-Asp-NH2] (Ac-T[Aib]FC[Phe(4-NH2)]RANC[Tle]TD-NH2; disulfide 4-9)",126 to 501,< 200,
"CC(=O)N[C@H](C(=O)NC(C)(C)C(=O)N[C@@H](Cc1cccc(C(F)(F)F)c1)C(=O)N[C@H]1CSSC[C@@H](C(=O)N[C@H](C(=O)N[C@H](C(N)=O)[C@@H](C)O)C(C)(C)C)NC(=O)[C@H](CC(N)=O)NC(=O)C(C)(C)NC(=O)[C@H](CCCNC(=N)N)NC(=O)[C@H](CCCCN)NC1=O)[C@@H](C)O [PSM-0264, Ac-Thr-Aib-Mtf-[Cys-Lys-Arg-Aib-Asn-Cys]-Tle-Thr-NH2] (Ac-T[Aib][Phe(3-CF3)]CKR[Aib]NC[Tle]T-NH2; disulfide 4-9)",,,"Kd [1, 5]: < 12.6 nM; IC50 [2, 6]: < 200 nM"

# More lines, main results first:
"Kd [1, 3] [nM]","IC50 [2, 4] [nM]",SMILES,further results
> 501,1260 to 3160,"CCCC[C@H](NC(=O)[C@@H]1CSSC[C@H](NC(=O)[C@H](Cc2ccccc2)NC(=O)[C@H](C)NC(=O)[C@@H](NC(C)=O)[C@@H](C)O)C(=O)N[C@@H](C)C(=O)N[C@@H](CCCNC(=N)N)C(=O)N[C@@H](C)C(=O)N[C@@H](CC(N)=O)C(=O)N1)C(=O)N[C@H](C(=O)N[C@@H](CC(=O)O)C(N)=O)[C@@H](C)O [PSM-0475, Ac-Thr-Ala-Phe-[Cys-Ala-Arg-Ala-Ass-Cys]-Nle-Thr-Asp-NH2] (Ac-TAFCARANC[Nle]TD-NH2; disulfide 4-9)",
< 12.6,< 200,"CC(=O)N[C@H](C(=O)NC(C)(C)C(=O)N[C@@H](Cc1ccccc1)C(=O)N[C@H]1CSSC[C@@H](C(=O)N[C@H](C(=O)N[C@H](C(N)=O)[C@@H](C)O)C(C)(C)C)NC(=O)[C@H](CC(=O)O)NC(=O)C(C)(C)NC(=O)[C@H](CCCNC(=N)N)NC(=O)[C@H](CCCCN)NC1=O)[C@@H](C)O [PSM-0478, Ac-Thr-Aib-Phe-[Cys-Lys-Arg-Aib-Asp-Cys]-Tle-Thr-NH2] (Ac-T[Aib]FCKR[Aib]DC[Tle]T-NH2; disulfide 4-9)",
